Measurements as given in patent US20230263822A1, “MODULATION OF FACTOR 11 EXPRESSION” (Ionis Pharmaceuticals, Inc., priority 2008, published 2023).
pIC50: −log10 of the molar value. Strand notation (5' to 3'): a small letter for the sugar, then the base; units joined by * are phosphorothioate-linked, units joined directly phosphodiester-linked; [ ] holds rarer units or linkages, { } end groups; capitals alone tell only the bases. e = 2'-O-(2-methoxyethyl) (MOE); [5mC] = 5-methylcytosine; d = 2'-deoxy (DNA)

Experiments:
Format in all cases: cell-based
human Factor 11 mRNA [1] = test: Antisense inhibition of human Factor 11 in HepG2 cells, lipofectin, 75 nM (Example 1); conditions: 75 nM antisense oligonucleotide, ~24 h, relative to untreated control cells, gapmers targeted to SEQ ID NO: 1
Procedure: Antisense oligonucleotides targeted to a Factor 11 nucleic acid were tested for their effects on Factor 11 mRNA in vitro. Cultured HepG2 cells at a density of 10,000 cells per well were transfected using lipofectin reagent with 75 nM antisense oligonucleotide. After a treatment period of approximately 24 hours, RNA was isolated from the cells and Factor 11 mRNA levels were measured by quantitative real time PCR. Factor 11 mRNA levels were adjusted according to total RNA content, as measured by RIBOGREEN. Results are presented as percent inhibition of Factor 11, relative to untreated control cells.
The chimeric antisense oligonucleotides in Tables 1 and 2 were designed as 5-10-5 MOE gapmers. The gapmers are 20 nucleotides in length, wherein the central gap segment is comprised of 10 2′-deoxynucleotides and is flanked on both sides (in the 5′ and 3′ directions) by wings comprising 5 nucleotides each. Each nucleotide in the 5′ wing segment and each nucleotide in the 3′ wing segment has a 2′-MOE modification. The internucleoside linkages throughout each gapmer are phosphorothioate (P=S) linkages. All cytidine residues throughout each gapmer are 5-methylcytidines. “Target start site” indicates the 5′-most nucleotide to which the gapmer is targeted. “Target stop site” indicates the 3′-most nucleotide to which the gapmer is targeted. Each gapmer listed in Table 1 is targeted to SEQ TD NO: 1 (GENBANK Accession No. NM_000128.3) and each gapmer listed in Table 2 is targeted to SEQ TD NO: 2 (GENBANK Accession No. NT_022792.17, truncated from 19598000 to 19624000).

human Factor 11 mRNA [2] = test: Antisense inhibition of human Factor 11 in HepG2 cells by microwalk gapmers, lipofectin, 75 nM (Example 3)
Outline: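 HepG2 cells (10,000/well) were transfected via lipofectin with 75 nM 20-mer MOE gapmers (phosphorothioate, 5-methyl-C) for about 24 h. Factor 11 mRNA was measured by qRT-PCR, normalized to RIBOGREEN total RNA, and given as percent inhibition versus untreated cells.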

human Factor 11 mRNA [3] = test: Dose-dependent inhibition of human Factor 11 in HepG2 cells, lipofectin 9.375-75 nM (Example 4); conditions: for percent inhibition of Factor 11 at 9.375 nM / percent inhibition of Factor 11 at 18.75 nM / percent inhibition of Factor 11 at 37.5 nM / percent inhibition of Factor 11 at 75 nM: relative to untreated control cells
Procedure: (§1) Cells were plated at a density of 10,000 cells per well and transfected using lipofectin reagent with 9.375 nM, 18.75 nM, 37.5 nM and 75 nM concentrations of antisense oligonucleotide, as specified in Table 9. After a treatment period of approximately 16 hours, RNA was isolated from the cells and Factor 11 mRNA levels were measured by quantitative real-time PCR. Human Factor 11 primer probe set RTS 2966 was used to measure mRNA levels. Factor 11 mRNA levels were adjusted according to total RNA content, as measured by RIBOGREEN. Results are presented as percent inhibition of Factor 11, relative to untreated control cells.

human Factor 11 mRNA [4] = test: Dose-dependent inhibition of human Factor 11 in HepG2 cells, electroporation 0.7-20 uM (Example 4); conditions: for percent inhibition of Factor 11 at 0.7 μM / percent inhibition of Factor 11 at 2.2 μM / percent inhibition of Factor 11 at 6.7 μM / percent inhibition of Factor 11 at 20 μM: relative to untreated control cells
Procedure: as §1, with “The gapmers were also transfected via electroporation and their dose dependent inhibition of human Factor 11 mRNA was measured. Cells” for “Cells”, “20,000” for “10,000”, “via electroporation” for “using lipofectin reagent”, “0.7 μM, 2.2 μM, 6.7 μM,” for “9.375 nM, 18.75 nM, 37.5 nM”, “20 μM” for “75 nM”, “10.” for “9.”

[5] = HepG2, lipofectin, ~24 h, gapmers targeted to nucleobases 656 to 704 of SEQ ID NO: 1
[6] = HepG2 cells, lipofectin, gapmers targeted to nucleobases 1018 to 1042 of SEQ ID NO: 1
[7] = HepG2 cells, lipofectin, gapmers targeted to nucleobases 1062 to 1091 of SEQ ID NO: 1

Substance	% inhibition (human Factor 11 mRNA [1])	pIC50 (human Factor 11 mRNA [3])	percent inhibition of Factor 11 at 9.375 nM (human Factor 11 mRNA [3])	percent inhibition of Factor 11 at 18.75 nM (human Factor 11 mRNA [3])	percent inhibition of Factor 11 at 37.5 nM (human Factor 11 mRNA [3])	percent inhibition of Factor 11 at 75 nM (human Factor 11 mRNA [3])	pIC50 (human Factor 11 mRNA [4])	percent inhibition of Factor 11 at 0.7 μM (human Factor 11 mRNA [4])	percent inhibition of Factor 11 at 2.2 μM (human Factor 11 mRNA [4])	percent inhibition of Factor 11 at 6.7 μM (human Factor 11 mRNA [4])	percent inhibition of Factor 11 at 20 μM (human Factor 11 mRNA [4])	other results
412187 (antisense eT*eT*e[5mC]*eA*eA*dA*d[5mC]*dA*dA*dG*dT*dG*dA*d[5mC]*dA*eT*eA*e[5mC]*eA*e[5mC]) [compound 412187]	21%											
412188 (antisense eT*eG*eA*eG*eA*dG*dA*dA*dT*dT*dG*d[5mC]*dT*dT*dG*e[5mC]*eT*eT*eT*e[5mC]) [compound 412188]	21%											
412189 (antisense eA*eA*eA*eT*eA*dT*dA*d[5mC]*d[5mC]*dT*dT*dG*dA*dG*dA*eG*eA*eA*eT*eT) [compound 412189]	8%											
412190 (antisense eA*eG*eT*eA*eT*dG*dT*d[5mC]*dA*dG*dA*dA*dA*dT*dA*eT*eA*e[5mC]*e[5mC]*eT) [compound 412190]	24%											
412191 (antisense eT*eT*eA*eA*eA*dA*dT*d[5mC]*dT*dT*dA*dG*dT*dA*dT*eG*eT*e[5mC]*eA*eG) [compound 412191]	14%											
412192 (antisense e[5mC]*eA*eG*e[5mC]*eA*dT*dA*dT*dT*dT*dG*dT*dG*dA*dA*eA*eG*eT*e[5mC]*eG) [compound 412192]	44%											
412193 (antisense eT*eG*eT*eG*eT*dA*dG*dG*dA*dA*dA*dT*dG*dG*dT*e[5mC]*eA*e[5mC]*eT*eT) [compound 412193]	38%											
412194 (antisense eT*eG*e[5mC]*eA*eA*dT*dT*d[5mC]*dT*dT*dA*dA*dT*dA*dA*eG*eG*eG*eT*eG) [compound 412194]	80%											
412195 (antisense eA*eA*eA*eT*e[5mC]*dA*dT*d[5mC]*d[5mC]*dT*dG*dA*dA*dA*dA*eG*eA*e[5mC]*e[5mC]*eT) [compound 412195]	22%											
412196 (antisense eT*eG*eA*eT*eA*dT*dA*dA*dG*dA*dA*dA*dA*dT*d[5mC]*eA*eT*e[5mC]*e[5mC]*eT) [compound 412196]	25%											
412197 (antisense eA*e[5mC]*eA*e[5mC]*eA*dT*dT*d[5mC]*dA*d[5mC]*d[5mC]*dA*dG*dA*dA*eA*e[5mC]*eT*eG*eA) [compound 412197]	45%											
412198 (antisense eT*eT*e[5mC]*eA*eG*dG*dA*d[5mC]*dA*d[5mC]*dA*dA*dG*dT*dA*eA*eA*e[5mC]*e[5mC]*eA) [compound 412198]	21%											
412199 (antisense eT*eT*e[5mC]*eA*e[5mC]*dT*d[5mC]*dT*dT*dG*dG*d[5mC]*dA*dG*dT*eG*eT*eT*eT*e[5mC]) [compound 412199]	66%											
412200 (antisense eA*eA*eG*eA*eA*dT*dA*d[5mC]*d[5mC]*d[5mC]*dA*dG*dA*dA*dA*eT*e[5mC]*eG*e[5mC]*eT) [compound 412200]	59%											
412201 (antisense e[5mC]*eA*eT*eT*eG*d[5mC]*dT*dT*dG*dA*dA*dA*dG*dA*dA*eT*eA*e[5mC]*e[5mC]*e[5mC]) [compound 412201]	66%											
412202 (antisense eT*eT*eG*eG*eT*dG*dT*dG*dA*dG*d[5mC]*dA*dT*dT*dG*e[5mC]*eT*eT*eG*eA) [compound 412202]	65%											
416972 (antisense eT*eA*dT*dG*d[5mC]*d[5mC]*d[5mC]*dT*dT*d[5mC]*dA*dT*dG*dT*d[5mC]*eT*eA*eG*eG*eT) [compound 416972]		7.59	32%	40%	60%	69%	5.37	25%	30%	48%	88%	% inhibition (human Factor 11 mRNA [2]; [5]): 90%
416973 (antisense eT*eT*dA*dT*dG*d[5mC]*d[5mC]*d[5mC]*dT*dT*d[5mC]*dA*dT*dG*dT*e[5mC]*eT*eA*eG*eG) [compound 416973]		8.52	60%	75%	85%	87%	5.64	20%	48%	86%	93%	% inhibition (human Factor 11 mRNA [2]; [5]): 92%
416984 (antisense e[5mC]*eA*dA*d[5mC]*d[5mC]*dG*dG*dG*dA*dT*dG*dA*dT*dG*dA*eG*eT*eG*e[5mC]*eA) [compound 416984]		7.66	26%	50%	62%	81%	5.96	43%	54%	88%	90%	% inhibition (human Factor 11 mRNA [2]; [6]): 89%
416985 (antisense eG*e[5mC]*dA*dA*d[5mC]*d[5mC]*dG*dG*dG*dA*dT*dG*dA*dT*dG*eA*eG*eT*eG*e[5mC]) [compound 416985]		7.31	17%	30%	47%	57%	5.24	12%	48%	45%	69%	% inhibition (human Factor 11 mRNA [2]; [6]): 88%
416989 (antisense eG*eA*dG*dA*dT*dT*d[5mC]*dT*dT*dT*dG*dG*dG*d[5mC]*d[5mC]*eA*eT*eT*e[5mC]*e[5mC]) [compound 416989]		7.59	18%	41%	62%	83%	5.89	32%	65%	88%	94%	% inhibition (human Factor 11 mRNA [2]; [7]): 88%
416993 (antisense e[5mC]*eT*dT*dT*dG*dA*dG*dA*dT*dT*d[5mC]*dT*dT*dT*dG*eG*eG*e[5mC]*e[5mC]*eA) [compound 416993]		7.44	15%	37%	50%	68%	5.66	22%	48%	87%	92%	% inhibition (human Factor 11 mRNA [2]; [7]): 91%
417000 (antisense eT*eG*d[5mC]*dA*d[5mC]*dA*dG*dT*dT*dT*d[5mC]*dT*dG*dG*d[5mC]*eA*eG*eG*e[5mC]*e[5mC]) [compound 417000]		7.64	35%	47%	58%	70%	6.22	46%	73%	76%	89%	% inhibition (human Factor 11 mRNA [2]; HepG2 cells, lipofectin, gapmers targeted to nucleobases 1275 to 1318 of SEQ ID NO: 1): 89%
